Reference: ChEMBL document CHEMBL5579818, “Identification of 3-(9H-carbazol-9-yl)-2-(1,3-dioxoisoindolin-2-yl)propanoic acids as promising DNMT1 inhibitors” (Eur J Med Chem, 2024)

Experiments:
[1] = biological target: T1, DNA (cytosine-5)-methyltransferase 1 (Homo sapiens, UniProt P26358); test: Binding affinity to human DNMT1 expressed in Escherichia coli assessed as response unit at 10 uM by SPR analysis
[2] = biological target: T1, DNA (cytosine-5)-methyltransferase 1; test: Binding affinity to human DNMT1 expressed in Escherichia coli assessed as equilibrium dissociation constant by SPR analysis
[3] = tested on: A2780; test: Antiproliferative activity against human A2780 cells incubated for 48 hrs by MTT assay; assay type: functional, cell-based; settings: A2780, 48 h
[4] = tested on: HeLa; test: Antiproliferative activity against human HeLa cells incubated for 48 hrs by MTT assay; assay type: functional, cell-based
[5] = tested on: K562; test: Antiproliferative activity against human K562 cells incubated for 48 hrs by MTT assay; assay type: functional, cell-based; settings: K562, 48 h
[6] = tested on: SiHa; test: Antiproliferative activity against human SiHa cells incubated for 48 hrs by MTT assay; assay type: functional, cell-based
[7] = Inhibition of recombinant human DNA methyltransferase using DNA as substrate incubated for 2 hrs by agarose gel assay
[8] = biological target: T1, DNA (cytosine-5)-methyltransferase 1; test: Binding affinity to human DNMT1 expressed in Escherichia coli by SPR analysis
[9] = biological target: T1, DNA (cytosine-5)-methyltransferase 1; test: Inhibition of DNMT1 (unknown origin) at 500 uM relative to control
[10] = biological target: T1, DNA (cytosine-5)-methyltransferase 1; test: Inhibition of DNMT1 (unknown origin) at 250 uM relative to control

T1 sequence (P26358 whole entry): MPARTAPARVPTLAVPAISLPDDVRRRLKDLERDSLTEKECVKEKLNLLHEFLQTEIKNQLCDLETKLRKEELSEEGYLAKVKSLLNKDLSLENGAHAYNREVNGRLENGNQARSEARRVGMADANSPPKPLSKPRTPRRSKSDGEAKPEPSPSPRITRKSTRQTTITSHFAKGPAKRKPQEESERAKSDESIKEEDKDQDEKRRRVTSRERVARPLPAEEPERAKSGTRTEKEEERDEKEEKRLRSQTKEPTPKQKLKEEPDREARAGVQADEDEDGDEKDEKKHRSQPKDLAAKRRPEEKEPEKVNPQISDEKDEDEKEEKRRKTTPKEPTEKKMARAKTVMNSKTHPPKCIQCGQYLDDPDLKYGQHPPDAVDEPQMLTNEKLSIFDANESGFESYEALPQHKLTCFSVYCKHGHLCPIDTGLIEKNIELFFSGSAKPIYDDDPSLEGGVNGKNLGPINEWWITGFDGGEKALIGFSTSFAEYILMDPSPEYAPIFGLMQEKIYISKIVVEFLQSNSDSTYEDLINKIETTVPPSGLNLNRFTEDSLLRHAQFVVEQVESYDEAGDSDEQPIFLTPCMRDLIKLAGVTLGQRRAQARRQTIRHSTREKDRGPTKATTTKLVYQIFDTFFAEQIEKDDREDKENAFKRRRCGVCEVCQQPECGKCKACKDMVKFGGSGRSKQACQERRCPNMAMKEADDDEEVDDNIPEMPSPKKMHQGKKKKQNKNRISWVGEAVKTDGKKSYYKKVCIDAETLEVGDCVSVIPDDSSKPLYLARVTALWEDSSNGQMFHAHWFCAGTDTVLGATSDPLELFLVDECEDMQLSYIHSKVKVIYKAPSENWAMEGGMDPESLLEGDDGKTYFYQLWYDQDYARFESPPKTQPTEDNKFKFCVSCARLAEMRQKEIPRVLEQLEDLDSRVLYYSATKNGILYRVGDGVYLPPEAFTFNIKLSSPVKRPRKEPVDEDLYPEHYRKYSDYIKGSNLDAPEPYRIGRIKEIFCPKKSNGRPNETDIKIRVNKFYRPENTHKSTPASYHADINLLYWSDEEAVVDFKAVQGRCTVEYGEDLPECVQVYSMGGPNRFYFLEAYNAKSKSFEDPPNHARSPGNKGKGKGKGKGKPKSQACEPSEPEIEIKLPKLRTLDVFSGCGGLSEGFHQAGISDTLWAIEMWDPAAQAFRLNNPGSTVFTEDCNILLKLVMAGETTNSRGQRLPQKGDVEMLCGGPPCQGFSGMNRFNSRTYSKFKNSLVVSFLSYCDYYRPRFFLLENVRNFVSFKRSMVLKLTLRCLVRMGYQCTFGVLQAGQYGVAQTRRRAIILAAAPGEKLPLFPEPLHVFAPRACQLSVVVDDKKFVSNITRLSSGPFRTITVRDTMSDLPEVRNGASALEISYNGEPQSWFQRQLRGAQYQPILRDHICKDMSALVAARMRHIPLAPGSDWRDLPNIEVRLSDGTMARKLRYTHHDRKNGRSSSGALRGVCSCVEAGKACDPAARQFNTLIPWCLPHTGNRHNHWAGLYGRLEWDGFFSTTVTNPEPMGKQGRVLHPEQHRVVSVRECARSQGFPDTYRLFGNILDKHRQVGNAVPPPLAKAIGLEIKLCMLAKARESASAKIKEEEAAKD

- Activity [1]: 2.2 RU
- Kd [2]: 94.6 µM
- IC50 [3]: > 200 µM
- IC50 [4]: > 200 µM
- IC50 [5]: > 200 µM
- IC50 [7]: 0.115 µM
- Kd [8]: 94.6 µM
- inhibition [9]: < 5%
- inhibition [10]: < 5%
SMILES: O=C(O)[C@H](Cc1c[nH]c2ccccc12)N1C(=O)c2ccccc2C1=O
- IC50 [6]: > 200 µM
